Results as given in ChEMBL document CHEMBL1201862, “PubChem BioAssay data set” (2004).
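Assay format: 96-well plates, 48-hour exposure. Here, GI50 denotes the concentration required for 50% inhibition of growth.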 Active and inactive are the calls of the source. No stated cut-off is given here; in the data, active = GI50 up to about 1.1 µM and inactive = higher.

Tests used:
Test in all cases: NCI tumour cell line growth inhibition, 48 h
[1] = test system: ACHN
[2] = test system: DU-145
[3] = test system: EKVX
[4] = test system: HCT-15
[5] = test system: HOP-62
[6] = test system: Hs-578T
[7] = test system: IGROV-1
[8] = test system: LXFL 529
[9] = test system: M19-MEL
[10] = test system: MDA-MB-435
[11] = test system: NCI-H226
[12] = test system: RPMI-8226
[13] = test system: RXF 393
[14] = test system: SF-295
[15] = test system: SF-539
[16] = test system: SK-MEL-5
[17] = test system: SNB-19
[18] = test system: SNB-75
[19] = test system: UACC-62
[20] = test system: NCI/ADR-RES

Compound	GI50 [1]	GI50 [2]	GI50 [3]	GI50 [4] [µM]	GI50 [5]	GI50 [6]	GI50 [7]	GI50 [8]	GI50 [9]	GI50 [10]	GI50 [11]	GI50 [12]	GI50 [13]	GI50 [14]	GI50 [15]	GI50 [16]	GI50 [17]	GI50 [18]	GI50 [19]	GI50 [20]
CN(C)CCNC(=O)c1cccc2nc3c(ccc4ccccc43)nc12	1.41 µM (inactive)	4.85 µM (inactive)	5.74 µM (inactive)	1.61	2.25 µM (inactive)	3.62 µM (inactive)	2.9 µM (inactive)	2.51 µM (inactive)	1.56 µM (inactive)	3.33 µM (inactive)	2.9 µM (inactive)	1.91 µM (inactive)	3.2 µM (inactive)	2.56 µM (inactive)	1.8 µM (inactive)	1.76 µM (inactive)	5.06 µM (inactive)	3.9 µM (inactive)	2.45 µM (inactive)	–
CC1C(O)=C(O)c2ccccc2N1O (centres undefined)	> 100 µM (inactive)	–	> 100 µM (inactive)	96.6	73.3 µM (inactive)	–	> 100 µM (inactive)	> 100 µM (inactive)	> 100 µM (inactive)	–	37.4 µM (inactive)	80.4 µM (inactive)	60.4 µM (inactive)	> 100 µM (inactive)	> 100 µM (inactive)	> 100 µM (inactive)	> 100 µM (inactive)	> 100 µM (inactive)	> 100 µM (inactive)	–
COC(=O)/C(=C\c1ccc(N(CCC#N)CCC#N)cc1)NC(=O)c1cc([N+](=O)[O-])ccc1Cl	> 100 µM (inactive)	–	> 100 µM (inactive)	> 100	> 100 µM (inactive)	–	> 100 µM (inactive)	> 100 µM (inactive)	> 100 µM (inactive)	–	> 100 µM (inactive)	> 100 µM (inactive)	> 100 µM (inactive)	> 100 µM (inactive)	> 100 µM (inactive)	> 100 µM (inactive)	> 100 µM (inactive)	> 100 µM (inactive)	> 100 µM (inactive)	–
C/C(=N\NC(=S)N1CCC(N2CCCCC2)CC1)c1ccccn1	2.41 µM (inactive)	3.72 µM (inactive)	3.4 µM (inactive)	2.4	–	4.72 µM (inactive)	3.54 µM (inactive)	0.828 µM (active)	3.71 µM (inactive)	2.4 µM (inactive)	–	2.2 µM (inactive)	1.36 µM (inactive)	2.28 µM (inactive)	3.11 µM (inactive)	2.66 µM (inactive)	3.7 µM (inactive)	2.87 µM (inactive)	3.33 µM (inactive)	2.26 µM (inactive)
C1CN2CCN3CCN4CCN1[PH]243	> 100 µM (inactive)	–	> 100 µM (inactive)	> 100	> 100 µM (inactive)	–	> 100 µM (inactive)	> 100 µM (inactive)	> 100 µM (inactive)	–	> 100 µM (inactive)	> 100 µM (inactive)	> 100 µM (inactive)	> 100 µM (inactive)	> 100 µM (inactive)	> 100 µM (inactive)	> 100 µM (inactive)	> 100 µM (inactive)	> 100 µM (inactive)	–
CN(C)CCCNC(=O)c1cccc2nc3ccccc3nc12	7.43 µM (inactive)	–	27.3 µM (inactive)	15.2	19.9 µM (inactive)	–	34.2 µM (inactive)	20.2 µM (inactive)	6.58 µM (inactive)	–	12 µM (inactive)	20.1 µM (inactive)	15.6 µM (inactive)	19.5 µM (inactive)	16.3 µM (inactive)	> 54 µM (inactive)	19.8 µM (inactive)	35.8 µM (inactive)	24.1 µM (inactive)	–
CC(=O)OC1C(COC(N)=O)OC(n2c(-c3ccc(C)cc3)cc(-c3ccccc3)c(C#N)c2=O)C(OC(C)=O)C1OC(C)=O (centres undefined)	> 100 µM (inactive)	–	> 100 µM (inactive)	> 100	> 100 µM (inactive)	–	> 100 µM (inactive)	> 100 µM (inactive)	> 100 µM (inactive)	–	> 100 µM (inactive)	> 100 µM (inactive)	> 100 µM (inactive)	> 100 µM (inactive)	> 100 µM (inactive)	> 100 µM (inactive)	> 100 µM (inactive)	44 µM (inactive)	> 100 µM (inactive)	–
CP1(=O)CCCCC1	> 100 µM (inactive)	–	> 100 µM (inactive)	> 100	> 100 µM (inactive)	–	> 100 µM (inactive)	> 100 µM (inactive)	> 100 µM (inactive)	–	> 100 µM (inactive)	> 100 µM (inactive)	> 100 µM (inactive)	> 100 µM (inactive)	> 100 µM (inactive)	> 100 µM (inactive)	> 100 µM (inactive)	> 100 µM (inactive)	> 100 µM (inactive)	–
O=C1C2C3C=CC(C2C(=O)N1CN1CCSCC1)C1C2C(=O)N(CN4CCSCC4)C(=O)C2C31 (centres undefined)	> 77.6 µM (inactive)	–	> 100 µM (inactive)	34.8	> 100 µM (inactive)	–	> 100 µM (inactive)	> 100 µM (inactive)	> 100 µM (inactive)	–	> 100 µM (inactive)	25.5 µM (inactive)	> 100 µM (inactive)	> 100 µM (inactive)	> 100 µM (inactive)	> 100 µM (inactive)	> 100 µM (inactive)	45.3 µM (inactive)	> 100 µM (inactive)	–
